From BigSolDB 2.1

solubility (mole fraction) (in n-octanol, 298.15 K) | solubility (mole fraction) (in n-octanol, 303.15 K) | solubility (mole fraction) (in n-octanol, 308.15 K) | solubility (mole fraction) (in n-octanol, 313.15 K) | solubility (mole fraction) (in water, 298.15 K) | solubility (mole fraction) (in water, 303.15 K) | solubility (mole fraction) (in water, 308.15 K) | solubility (mole fraction) (in water, 313.15 K) | Structure (SMILES)
1.39e-05 | 1.79e-05 | 2.32e-05 | 3.09e-05 | 4.87e-06 | 5.98e-06 | 7.94e-06 | 1.09e-05 | Nc1ccc(S(=O)(=O)Nc2ncccn2)cc1
9.49e-05 | 0.00013 | 0.000168 | 0.000206 | 3.25e-05 | 4.33e-05 | 5.92e-05 | 7.35e-05 | Nc1ccc(S(=O)(=O)Nc2nccs2)cc1
